ChEMBL document CHEMBL5038584, “Dual-Targeting Antiproliferation Hybrids Derived from 1-Deoxynojirimycin and Kaempferol Induce MCF-7 Cell Apoptosis through the Mitochondria-Mediated Pathway” (J Nat Prod, 2021)
Blank lines part the entries; values can stand above or below the compound they belong to. Active and inactive are the calls of the source. No cut-off for these calls is given here.

Assays:
[1] = Lipophilicity, logP of compound by shake flask method; assay type: physicochemical; conditions: octanol/water
MCF7 [2] = assay: Cytotoxicity against human MCF7 cells measured after 48 hrs by MTT assay; assay type: functional, cell-based; conditions: MCF7, 48 h
HCC1937 = assay: Cytotoxicity against human HCC1937 cells measured after 48 hrs by MTT assay; assay type: functional, cell-based; conditions: HCC1937, 48 h
HepG2 = assay: Cytotoxicity against human HepG2 cells measured after 48 hrs by MTT assay; assay type: functional, cell-based; conditions: HepG2, 48 h
HCT-116 = assay: Cytotoxicity against human HCT-116 cells measured after 48 hrs by MTT assay; assay type: functional, cell-based; conditions: HCT-116, 48 h
BGC-823 = assay: Cytotoxicity against human BGC-823 cells measured after 48 hrs by MTT assay; assay type: functional, cell-based; conditions: BGC-823, 48 h
A549 = assay: Cytotoxicity against human A549 cells measured after 48 hrs by MTT assay; assay type: functional, cell-based; conditions: A549, 48 h
MCF7 [3] = assay: Anticlonogenic activity against human MCF7 cells assessed as inhibition of colony formation at 5 to 10 uM measured after 48 hrs by crystal violet staining based colony forming assay; assay type: functional, cell-based; conditions: dose 5-10 µM
MCF7 [4] = assay: Antimigratory activity against human MCF7 cells at 5 uM after 24 hrs by inverted fluorescence microscope analysis relative to control (reference value: 82.9%); assay type: functional
MCF7 [5] = assay: Antimigratory activity against human MCF7 cells at 10 uM after 24 hrs by inverted fluorescence microscope analysis relative to control (reference value: 82.9%).; assay type: functional
MCF7 [6] = assay: Cell cycle arrest in human MCF7 cells assessed as accumulation of cells at G1 phase at 10 uM measured after 24 hrs by PI staining based flow cytometry assay (reference value: 59.45%); assay type: functional
MCF7 [7] = assay: Cell cycle arrest in human MCF7 cells assessed as accumulation of cells at S phase at 10 uM measured after 24 hrs by PI staining based flow cytometry assay (reference value: 25.64%); assay type: functional
MCF7 [8] = assay: Cell cycle arrest in human MCF7 cells assessed as accumulation of cells at G2 phase at 10 uM measured after 24 hrs by PI staining based flow cytometry assay (reference value: 14.91%); assay type: functional
MCF7 [9] = assay: Cell cycle arrest in human MCF7 cells assessed as accumulation of cells at G1 phase at 20 uM measured after 24 hrs by PI staining based flow cytometry assay (reference value: 59.45%); assay type: functional
MCF7 [10] = assay: Cell cycle arrest in human MCF7 cells assessed as accumulation of cells at S phase at 20 uM measured after 24 hrs by PI staining based flow cytometry assay (reference value: 25.64%); assay type: functional
MCF7 [11] = assay: Cell cycle arrest in human MCF7 cells assessed as accumulation of cells at G2 phase at 20 uM measured after 24 hrs by PI staining based flow cytometry assay (reference value: 14.91%); assay type: functional
MCF7 [12] = assay: Induction of apoptosis in human MCF7 cells assessed as cell shrinkage at 20 uM measured after 24 hrs by Hoechst 33342 staining based flourescence microscopy method; assay type: functional
MCF7 [13] = assay: Induction of apoptosis in human MCF7 cells assessed as nuclear changes at 20 uM measured after 24 hrs by Hoechst 33342 staining based flourescence microscopy method; assay type: functional, cell-based
MCF7 [14] = assay: Induction of apoptosis in human MCF7 cells assessed as viable cells at 10 uM measured after 24 hrs by AnnexinV/[…]-PI staining based flow cytometry method (Rvb =97 %); assay type: functional; conditions: read-out: Activity
MCF7 [15] = assay: Induction of apoptosis in human MCF7 cells assessed as early apoptotic cells at 10 uM measured after 24 hrs by AnnexinV/[…]-PI staining based flow cytometry method (Rvb =0.466 %); assay type: functional
MCF7 [16] = assay: Induction of apoptosis in human MCF7 cells assessed as late apoptotic cells at 10 uM measured after 24 hrs by AnnexinV/[…]-PI staining based flow cytometry method (Rvb =1.28 %); assay type: functional
MCF7 [17] = assay: Induction of apoptosis in human MCF7 cells assessed as necrotic cells at 10 uM measured after 24 hrs by AnnexinV/[…]-PI staining based flow cytometry method (Rvb =1.28 %); assay type: functional
MCF7 [18] = assay: Induction of apoptosis in human MCF7 cells assessed as viable cells at 20 uM measured after 24 hrs by AnnexinV/[…]-PI staining based flow cytometry method (Rvb =97 %); assay type: functional; conditions: read-out: Activity
MCF7 [19] = assay: Induction of apoptosis in human MCF7 cells assessed as early apoptotic cells at 20 uM measured after 24 hrs by AnnexinV/[…]-PI staining based flow cytometry method (Rvb =0.466 %); assay type: functional
MCF7 [20] = assay: Induction of apoptosis in human MCF7 cells assessed as late apoptotic cells at 20 uM measured after 24 hrs by AnnexinV/[…]-PI staining based flow cytometry method (Rvb =1.28 %); assay type: functional
MCF7 [21] = assay: Induction of apoptosis in human MCF7 cells assessed as necrotic cells at 20 uM measured after 24 hrs by AnnexinV/[…]-PI staining based flow cytometry method (Rvb =1.28 %); assay type: functional
MCF7 [22] = assay: Induction of mitochondrial membrane potential loss in human MCF7 cells at 5 to 10 uM measured after 24 hrs by JC-1 staining based flourescence microscopy method; assay type: functional, cell-based; conditions: dose 5-10 µM
MCF7 [23] = assay: Induction of apoptosis in human MCF7 cells assessed as increase in intracellular ROS levels at 10 uM measured after 24 hrs by DCFH-DA staining based flow cytometry method; assay type: functional, cell-based
MCF7 [24] = assay: Induction of intracellular calcium level in human MCF7 cells at 5 to 10 uM measured after 24 hrs by Fluo-4AM staining based flourescence microscopy method; assay type: functional, cell-based; conditions: dose 5-10 µM
MCF7 [25] = assay: Induction of apoptosis in human MCF7 cells assessed as decrease of COX-2 protein level at 10 uM measured after 24 hrs by Western blot assay; assay type: functional, cell-based
MCF7 [26] = assay: Induction of apoptosis in human MCF7 cells assessed as decrease of Bcl2 protein level at 10 uM measured after 24 hrs by Western blot assay; assay type: functional, cell-based
MCF7 [27] = assay: Induction of apoptosis in human MCF7 cells assessed as increase of Bax protein level at 10 uM measured after 24 hrs by Western blot assay; assay type: functional, cell-based
MCF7 [28] = assay: Induction of apoptosis in human MCF7 cells assessed as increase of Bax/Bcl2 ratio at 10 uM measured after 24 hrs by Western blot assay; assay type: functional, cell-based
MCF7 [29] = assay: Induction of apoptosis in human MCF7 cells at 10 uM measured after 24 hrs by AnnexinV/[…]-PI staining based flow cytometry method; assay type: functional
MCF7 [30] = assay: Induction of apoptosis in human MCF7 cells at 20 uM measured after 24 hrs by AnnexinV/[…]-PI staining based flow cytometry method; assay type: functional

SMILES: O=c1c(O)c(-c2ccc(O)cc2)oc2cc(O)cc(O)c12 [KAEMPFEROL]
IC50 (MCF7 [2]): > 10 µM
IC50 (HCC1937): > 10 µM
IC50 (HepG2): > 10 µM
IC50 (HCT-116): > 10 µM
IC50 (BGC-823): > 10 µM
IC50 (A549): > 10 µM
Activity (MCF7 [5]): 79.9%
Activity (MCF7 [9]): 53.49%
Activity (MCF7 [10]): 29.49%
Activity (MCF7 [11]): 7.02%
viability at 20 µM (MCF7 [18]): 95.4%
Activity (MCF7 [19]): 0.556%
Activity (MCF7 [20]): 2.43%
Activity (MCF7 [21]): 1.61%
Activity (MCF7 [25]): Active

SMILES: OC[C@H]1NC[C@H](O)[C@@H](O)[C@@H]1O [DUVOGLUSTAT]
logP [1]: -0.68
IC50 (MCF7 [2]): > 10 µM
IC50 (HCC1937): > 10 µM
IC50 (HepG2): > 10 µM
IC50 (HCT-116): > 10 µM
IC50 (BGC-823): > 10 µM
IC50 (A549): > 10 µM
Activity (MCF7 [5]): 78.4%
Activity (MCF7 [9]): 49.59%
Activity (MCF7 [10]): 31.41%
Activity (MCF7 [11]): 19%
viability at 20 µM (MCF7 [18]): 96.6%
Activity (MCF7 [19]): 0.409%
Activity (MCF7 [20]): 1.75%
Activity (MCF7 [21]): 1.19%

SMILES: COc1ccc(-c2oc3cc(OC)cc(OC)c3c(=O)c2OCCCCCN2C[C@H](O)[C@@H](O)[C@H](O)[C@H]2CO)cc1
logP [1]: 0.49
IC50 (MCF7 [2]): > 10 µM
IC50 (HCC1937): > 10 µM
IC50 (HepG2): > 10 µM
IC50 (HCT-116): > 10 µM
IC50 (BGC-823): > 10 µM
IC50 (A549): > 10 µM

More lines, main results first:

logP [1]: 1.65
SMILES: COc1ccc(-c2oc3cc(OC)cc(OC)c3c(=O)c2OCCCCCCCCN2C[C@H](O)[C@@H](O)[C@H](O)[C@H]2CO)cc1
IC50 (MCF7 [2]): > 10 µM
IC50 (HCC1937): > 10 µM
IC50 (HepG2): > 10 µM
IC50 (HCT-116): 8.8 µM
IC50 (BGC-823): > 10 µM
IC50 (A549): 7.6 µM

logP [1]: 2.92
SMILES: COc1ccc(-c2oc3cc(OC)cc(OC)c3c(=O)c2OCCCCCCCCCCCN2C[C@H](O)[C@@H](O)[C@H](O)[C@H]2CO)cc1
IC50 (MCF7 [2]): 3.6 µM
IC50 (HCC1937): 7.1 µM
IC50 (HepG2): 7.7 µM
IC50 (HCT-116): 7.8 µM
IC50 (BGC-823): 4.5 µM
IC50 (A549): 5.1 µM
Activity (MCF7 [3]): Active
Activity (MCF7 [4]): 56.5%
Activity (MCF7 [5]): 46%
Activity (MCF7 [6]): 55.3%
Activity (MCF7 [7]): 26.6%
Activity (MCF7 [8]): 18.07%
Activity (MCF7 [9]): 42.64%
Activity (MCF7 [10]): 56.48%
Activity (MCF7 [11]): 0.87%
Activity (MCF7 [12]): Active
Activity (MCF7 [13]): Active
viability at 10 µM (MCF7 [14]): 89.5%
Activity (MCF7 [15]): 0.508%
Activity (MCF7 [16]): 5.97%
Activity (MCF7 [17]): 4.03%
viability at 20 µM (MCF7 [18]): 27.3%
Activity (MCF7 [19]): 37.9%
Activity (MCF7 [20]): 29.9%
Activity (MCF7 [21]): 4.83%
Activity (MCF7 [22]): Active
Activity (MCF7 [23]): Active
Activity (MCF7 [24]): Dose-Dependent Effect
Activity (MCF7 [25]): Active
Activity (MCF7 [26]): Active
Activity (MCF7 [27]): Active
Activity (MCF7 [28]): Active
Activity (MCF7 [29]): 6.48%
Activity (MCF7 [30]): 67.8%
